Reference: ChEMBL document CHEMBL1201862, “PubChem BioAssay data set” (2004)
Calls of active or inactive are those of the source.

Columns and labels:
Type in all cases: functional
Protein RecA = target: T1, Protein RecA (Mycobacterium tuberculosis, UniProt P9WHJ3); test: Fluorescence Cell-Free Homogeneous Dose Retest to Identify Inhibitors of RecA-Intein Splicing Activity. [Related pubchem assays (depositor defined):AID2097, AID2223, AID489010, AID492950]
T1 sequence (P9WHJ3 whole entry): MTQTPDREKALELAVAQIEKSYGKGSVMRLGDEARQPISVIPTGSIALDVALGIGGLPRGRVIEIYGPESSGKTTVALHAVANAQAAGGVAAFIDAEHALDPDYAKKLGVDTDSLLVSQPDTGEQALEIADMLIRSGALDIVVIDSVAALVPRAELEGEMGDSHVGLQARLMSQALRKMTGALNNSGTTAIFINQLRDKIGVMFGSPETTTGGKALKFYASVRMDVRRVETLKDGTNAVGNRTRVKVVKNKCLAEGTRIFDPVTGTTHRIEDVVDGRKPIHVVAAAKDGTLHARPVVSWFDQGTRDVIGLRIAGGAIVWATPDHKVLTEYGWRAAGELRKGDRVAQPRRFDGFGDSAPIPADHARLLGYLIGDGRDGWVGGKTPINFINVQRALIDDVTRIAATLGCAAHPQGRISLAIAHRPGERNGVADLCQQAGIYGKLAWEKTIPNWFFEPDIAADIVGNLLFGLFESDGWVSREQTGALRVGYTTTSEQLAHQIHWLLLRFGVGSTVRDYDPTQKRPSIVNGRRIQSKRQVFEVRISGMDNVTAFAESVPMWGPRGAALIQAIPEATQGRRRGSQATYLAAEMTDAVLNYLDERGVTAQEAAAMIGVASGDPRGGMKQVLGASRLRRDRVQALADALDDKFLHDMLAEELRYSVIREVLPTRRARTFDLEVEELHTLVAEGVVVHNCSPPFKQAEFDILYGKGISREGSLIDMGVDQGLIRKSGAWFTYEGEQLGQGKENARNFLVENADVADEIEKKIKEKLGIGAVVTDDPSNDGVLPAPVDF

[1] = target: T2, Sentrin-specific protease 7 (Homo sapiens, UniProt Q9BQF6);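 also: Luminescence-based dose-response confirmation of ultra-high-throughput screening hits, measuring inhibition of SENP7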
T2 sequence (Q9BQF6 whole entry): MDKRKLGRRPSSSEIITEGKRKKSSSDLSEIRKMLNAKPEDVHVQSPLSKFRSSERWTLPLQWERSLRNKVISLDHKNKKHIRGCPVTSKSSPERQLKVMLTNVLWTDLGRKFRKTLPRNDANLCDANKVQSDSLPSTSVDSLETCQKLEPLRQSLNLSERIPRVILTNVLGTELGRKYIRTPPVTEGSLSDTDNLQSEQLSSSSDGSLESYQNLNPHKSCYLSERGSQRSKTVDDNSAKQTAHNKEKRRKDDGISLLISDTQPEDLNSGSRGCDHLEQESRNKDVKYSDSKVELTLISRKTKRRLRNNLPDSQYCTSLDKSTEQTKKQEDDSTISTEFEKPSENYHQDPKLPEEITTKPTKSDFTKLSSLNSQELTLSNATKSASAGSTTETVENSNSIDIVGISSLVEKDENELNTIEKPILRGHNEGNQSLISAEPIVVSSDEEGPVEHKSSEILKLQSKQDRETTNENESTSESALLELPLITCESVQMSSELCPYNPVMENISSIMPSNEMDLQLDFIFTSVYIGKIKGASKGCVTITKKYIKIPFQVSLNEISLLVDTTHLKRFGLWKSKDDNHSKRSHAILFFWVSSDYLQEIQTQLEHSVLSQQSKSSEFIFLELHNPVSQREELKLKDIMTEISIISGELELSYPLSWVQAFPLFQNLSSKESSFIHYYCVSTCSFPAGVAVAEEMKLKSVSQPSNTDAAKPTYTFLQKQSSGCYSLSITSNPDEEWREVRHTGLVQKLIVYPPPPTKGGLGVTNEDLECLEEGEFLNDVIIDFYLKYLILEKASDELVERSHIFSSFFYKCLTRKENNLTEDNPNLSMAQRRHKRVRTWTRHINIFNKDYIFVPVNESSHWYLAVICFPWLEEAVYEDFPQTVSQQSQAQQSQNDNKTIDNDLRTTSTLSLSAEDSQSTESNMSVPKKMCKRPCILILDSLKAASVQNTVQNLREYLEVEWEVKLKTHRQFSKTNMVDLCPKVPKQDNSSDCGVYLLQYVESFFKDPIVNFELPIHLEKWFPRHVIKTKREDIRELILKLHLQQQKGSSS

[2] = target: T3, Sentrin-specific protease 6 (Homo sapiens, UniProt Q9GZR1);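 also: Luminescence-based dose-response confirmatory assay of SENP6 inhibition, following up an ultra-high-throughput screen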
T3 sequence (Q9GZR1 whole entry): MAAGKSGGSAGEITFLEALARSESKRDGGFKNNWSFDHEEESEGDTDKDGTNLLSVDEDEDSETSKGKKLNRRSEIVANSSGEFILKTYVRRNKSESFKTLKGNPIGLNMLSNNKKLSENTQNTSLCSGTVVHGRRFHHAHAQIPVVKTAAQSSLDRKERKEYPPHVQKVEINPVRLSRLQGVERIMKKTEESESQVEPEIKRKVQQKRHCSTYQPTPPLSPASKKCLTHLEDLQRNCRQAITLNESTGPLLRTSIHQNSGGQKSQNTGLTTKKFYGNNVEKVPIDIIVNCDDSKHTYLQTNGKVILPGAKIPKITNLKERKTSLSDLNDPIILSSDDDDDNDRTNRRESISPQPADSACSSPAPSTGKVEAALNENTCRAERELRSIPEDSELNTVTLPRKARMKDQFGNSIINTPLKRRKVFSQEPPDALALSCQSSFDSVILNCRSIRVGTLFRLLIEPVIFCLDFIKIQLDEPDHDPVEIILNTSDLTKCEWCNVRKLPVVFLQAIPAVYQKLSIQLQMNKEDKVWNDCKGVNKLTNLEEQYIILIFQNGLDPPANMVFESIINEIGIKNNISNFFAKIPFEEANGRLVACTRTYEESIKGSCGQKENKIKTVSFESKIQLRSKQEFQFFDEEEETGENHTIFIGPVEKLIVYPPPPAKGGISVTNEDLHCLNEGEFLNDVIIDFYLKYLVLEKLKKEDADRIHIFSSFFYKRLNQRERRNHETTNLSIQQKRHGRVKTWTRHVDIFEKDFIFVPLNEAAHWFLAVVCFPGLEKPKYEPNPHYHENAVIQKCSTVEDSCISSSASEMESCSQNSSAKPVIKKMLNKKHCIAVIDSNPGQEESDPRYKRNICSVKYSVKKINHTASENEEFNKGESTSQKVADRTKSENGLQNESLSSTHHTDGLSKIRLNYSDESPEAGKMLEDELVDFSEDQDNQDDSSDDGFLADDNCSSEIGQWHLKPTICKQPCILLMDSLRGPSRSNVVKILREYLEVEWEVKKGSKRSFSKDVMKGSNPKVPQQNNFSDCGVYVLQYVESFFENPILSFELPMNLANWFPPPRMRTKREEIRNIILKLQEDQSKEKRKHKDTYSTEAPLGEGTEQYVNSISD

Aurora kinase A = Aurora kinase A (Homo sapiens, UniProt O14965);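 also: value from the Navigating the Kinome kinase panel profiling, panel entry STK6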
Sequence of Aurora kinase A (O14965 whole entry): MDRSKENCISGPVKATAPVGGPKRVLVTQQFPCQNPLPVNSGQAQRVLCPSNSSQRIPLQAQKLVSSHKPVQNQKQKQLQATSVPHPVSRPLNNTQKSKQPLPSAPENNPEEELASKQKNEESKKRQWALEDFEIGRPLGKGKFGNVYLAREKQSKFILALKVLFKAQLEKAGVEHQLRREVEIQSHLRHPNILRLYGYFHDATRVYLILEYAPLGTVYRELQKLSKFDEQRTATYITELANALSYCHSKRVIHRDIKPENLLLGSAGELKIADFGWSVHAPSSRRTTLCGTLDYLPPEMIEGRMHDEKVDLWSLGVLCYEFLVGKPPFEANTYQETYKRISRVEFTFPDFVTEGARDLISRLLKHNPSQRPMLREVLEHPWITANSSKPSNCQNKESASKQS

**Q.** For `CCOC(=O)C(C(=O)OCC)c1cc(Br)c2noc3c2c1C(=O)c1ccccc1-3`, which EC50 (Protein RecA) is on record?
**A.** 0.393 µM (active)

**Q.** Which results are given for `C=CCNC1=C(Cl)C(=O)c2ccccc2C1=O`?
**A.** IC50 [1]: 23.9 µM (active); IC50 [2]: 9.07 µM (active); EC50 (Protein RecA): 10.4 µM (active)

**Q.** For `CN(C)c1ccc(-c2nnc(-c3cccs3)o2)cc1`, which IC50 [1] is on record?
**A.** 12.9 µM (active)

**Q.** And the IC50 [2]?
**A.** > 100 µM (inactive)

**Q.** For `COc1ccc(C(=O)Nc2n[nH]c3ccc(-c4cn(Cc5ccccc5)nn4)cc23)cc1OC`, which Ki (Aurora kinase A) is on record?
**A.** 398 nM (active)
